Source: ChEMBL document CHEMBL1201862, “PubChem BioAssay data set” (2004)
The source made the active and inactive calls.

How the values were obtained:
[1] = intracellular Trypanosoma cruzi inhibitors in host cells – cell-based, plate reader, cherry-pick samples, set 3, dose response (AID 651818); format: functional;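 note: compounds incubated with infected cells for about four days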
[2] = molecular target: T1, Calpain-2 catalytic subunit (Sus scrofa, UniProt P43367); experiment: pig calpain II inhibitor potency, dose response, biochemical, fluorogenic peptide substrate (AID 1420); format: functional
T1 sequence (P43367 whole entry): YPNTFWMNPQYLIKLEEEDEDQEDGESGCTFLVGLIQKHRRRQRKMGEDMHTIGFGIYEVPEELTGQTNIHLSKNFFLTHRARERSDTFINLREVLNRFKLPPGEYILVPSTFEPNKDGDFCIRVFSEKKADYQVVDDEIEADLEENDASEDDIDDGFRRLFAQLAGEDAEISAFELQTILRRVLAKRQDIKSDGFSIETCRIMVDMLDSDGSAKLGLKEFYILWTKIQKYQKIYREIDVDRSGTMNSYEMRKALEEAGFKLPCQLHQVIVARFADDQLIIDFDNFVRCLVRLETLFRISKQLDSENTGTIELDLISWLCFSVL

[3] = inhibitors of HIV Env-driven cell fusion, dose response, cherry-pick (AID 652057); format: functional, cell-based
[4] = inhibitors of clade B AD8 Env fusion, dose response, cell-based, cherry-pick (AID 652062); format: functional;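 note: luciferase signal from cell-cell fusion driven by HIV-1 clade B AD8 Env; potency is for inhibitors of fusion seen as a drop in luminescence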
[5] = off-target signal loss in HeLa-CEM21 co-culture – HeLa F-luc CTL cells, cherry-picked, counter-screen for HIV-1 Env fusion inhibitor project, dose response (AID 652040); format: functional, cell-based;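 note: potency for signal decrease marking cytotoxic or nonspecific inhibition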
[6] = ZM109 Env clade C HIV-1 fusion inhibitors, dose response, HeLa effector, CEM target cells, luciferase, cherry-pick (AID 652058); format: functional, cell-based
[7] = molecular target: T2, Ubiquitin-conjugating enzyme E2 N (Homo sapiens, UniProt P61088); format: functional;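 note: Dose-response confirmation in a TR-FRET assay detecting UBC13-driven polyubiquitin chain formation, inhibition measured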
T2 sequence (P61088 whole entry): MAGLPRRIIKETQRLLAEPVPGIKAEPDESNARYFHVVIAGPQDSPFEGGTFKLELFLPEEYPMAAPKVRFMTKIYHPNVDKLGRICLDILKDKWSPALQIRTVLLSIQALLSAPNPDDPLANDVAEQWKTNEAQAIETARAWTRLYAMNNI

H9c2 = experiment: cells; format: functional, cell-based; conditions: Rattus norvegicus, H9c2, Myocardium;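 note: confirmatory concentration-response retest of ultra-high-throughput screening hits for modulation of myocardial damage; cell death induced by hydrogen peroxide oxidative stress; compound pretreatment for 60 min then peroxide exposure for 2 h; potency is for protecting the cells against peroxide damage rather than for killing them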
[8] = molecular target: T3, DNA repair protein RAD52 homolog (Homo sapiens, UniProt P43351); format: functional, biochemical
T3 sequence (P43351 whole entry): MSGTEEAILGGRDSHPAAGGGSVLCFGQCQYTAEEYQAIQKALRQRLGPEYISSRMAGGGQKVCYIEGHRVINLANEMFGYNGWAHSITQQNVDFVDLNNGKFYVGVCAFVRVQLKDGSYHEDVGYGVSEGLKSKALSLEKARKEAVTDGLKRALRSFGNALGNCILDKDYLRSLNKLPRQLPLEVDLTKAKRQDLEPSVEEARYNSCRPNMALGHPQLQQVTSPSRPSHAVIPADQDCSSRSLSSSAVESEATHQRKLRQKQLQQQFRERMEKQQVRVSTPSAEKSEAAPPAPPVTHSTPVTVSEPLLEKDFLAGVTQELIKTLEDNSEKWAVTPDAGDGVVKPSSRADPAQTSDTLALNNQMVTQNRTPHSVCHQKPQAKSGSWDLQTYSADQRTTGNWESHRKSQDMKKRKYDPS

[9] = P. falciparum 3D7-ScDHODH growth inhibitors, dose response, SYBR Green, dry powder samples (AID 1159570); format: functional, cell-based;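 note: parasite growth measured after 72 hours of compound exposure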
[10] = P. falciparum Dd2 growth inhibitors, dose response, SYBR Green, cherry-picked samples (AID 1159567); format: functional, cell-based
[11] = P. falciparum Dd2 growth inhibitors, dose response, SYBR Green, dry powder samples (AID 1159566); format: functional, cell-based;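 note: potency for growth inhibition with lower SYBR green DNA signal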
[12] = P. falciparum ATP4 D1247Y mutant growth inhibitors, dose response, NITD609-resistant line, SYBR Green, dry powder (AID 1159571); format: functional, cell-based;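 note: parasites synchronized at ring stage by sorbitol before testing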
[13] = molecular target: T4, Corticotropin-releasing factor receptor 2/Corticotropin-releasing factor-binding protein (Homo sapiens, UniProt P24387+Q13324); experiment: Dose Response confirmation of uHTS hits for small molecule antagonists of the CRF-binding protein and CRF-R2 receptor complex.; format: functional; conditions: read-out: IC50_Mean
T4 sequence (Q13324 whole entry): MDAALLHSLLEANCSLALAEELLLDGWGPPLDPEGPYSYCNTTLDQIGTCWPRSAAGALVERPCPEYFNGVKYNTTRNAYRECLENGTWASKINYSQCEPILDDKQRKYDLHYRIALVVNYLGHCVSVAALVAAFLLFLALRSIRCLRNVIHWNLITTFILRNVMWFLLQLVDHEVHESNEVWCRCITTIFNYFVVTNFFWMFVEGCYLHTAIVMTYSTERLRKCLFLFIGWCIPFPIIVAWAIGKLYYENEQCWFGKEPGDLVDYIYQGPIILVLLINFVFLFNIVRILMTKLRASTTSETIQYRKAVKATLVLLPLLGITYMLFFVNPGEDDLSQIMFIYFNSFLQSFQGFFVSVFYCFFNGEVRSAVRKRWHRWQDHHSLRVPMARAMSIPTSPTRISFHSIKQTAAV
T4 sequence (P24387 whole entry): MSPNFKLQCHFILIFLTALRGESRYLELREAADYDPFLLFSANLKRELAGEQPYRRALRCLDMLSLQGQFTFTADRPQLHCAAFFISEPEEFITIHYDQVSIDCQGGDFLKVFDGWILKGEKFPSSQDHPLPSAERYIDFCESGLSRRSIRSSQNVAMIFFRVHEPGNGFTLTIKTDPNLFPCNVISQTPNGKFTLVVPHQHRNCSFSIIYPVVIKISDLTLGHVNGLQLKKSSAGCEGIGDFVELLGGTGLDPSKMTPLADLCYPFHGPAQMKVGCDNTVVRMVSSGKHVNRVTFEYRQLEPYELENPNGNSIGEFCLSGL

[14] = molecular target: T4, Corticotropin-releasing factor receptor 2/Corticotropin-releasing factor-binding protein; experiment: activators of CRF receptor 2 with binding protein – uHTS hits, confirmation (AID 602473); format: functional; conditions: read-out: EC50_Mean
[15] = molecular target: Induced myeloid leukemia cell differentiation protein Mcl-1 (Homo sapiens, UniProt Q07820); format: functional
Chain of Induced myeloid leukemia cell differentiation protein Mcl-1 (Q07820 whole entry): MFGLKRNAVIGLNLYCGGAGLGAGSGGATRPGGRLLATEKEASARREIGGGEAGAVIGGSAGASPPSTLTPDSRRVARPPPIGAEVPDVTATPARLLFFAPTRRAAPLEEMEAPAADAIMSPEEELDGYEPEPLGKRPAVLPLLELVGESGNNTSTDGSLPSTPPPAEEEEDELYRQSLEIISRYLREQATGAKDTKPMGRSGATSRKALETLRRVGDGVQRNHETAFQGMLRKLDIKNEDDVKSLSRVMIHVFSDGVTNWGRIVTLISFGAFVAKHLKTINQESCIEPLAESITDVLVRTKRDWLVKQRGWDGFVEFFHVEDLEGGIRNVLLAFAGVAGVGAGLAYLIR

Streptococcus = experiment: Group A Streptococcus viability loss, dose response, counter-screen for streptokinase expression inhibitor project, luminescence, BacTiterGlo (AID 1915); format: functional, organism-based;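 note: potency for reduction of bacterial viability or growth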
[16] = test system: Streptococcus sp. 'group A'; experiment: growth inhibition of control SK(-) GAS strain, dose response, counter-screen for streptokinase expression inhibitor project, luminescence, kanamycin, BacTiterGlo, confirmation (AID 1900); format: functional, organism-based
[17] = molecular target: T5, Zinc finger protein mex-5 (Caenorhabditis elegans, UniProt Q9XUB2); experiment: MEX-5/TCR-2 RNA interaction inhibitors, dose response, biochemical, C. elegans, fluorescence polarization (AID 1960)
T5 sequence (Q9XUB2 whole entry): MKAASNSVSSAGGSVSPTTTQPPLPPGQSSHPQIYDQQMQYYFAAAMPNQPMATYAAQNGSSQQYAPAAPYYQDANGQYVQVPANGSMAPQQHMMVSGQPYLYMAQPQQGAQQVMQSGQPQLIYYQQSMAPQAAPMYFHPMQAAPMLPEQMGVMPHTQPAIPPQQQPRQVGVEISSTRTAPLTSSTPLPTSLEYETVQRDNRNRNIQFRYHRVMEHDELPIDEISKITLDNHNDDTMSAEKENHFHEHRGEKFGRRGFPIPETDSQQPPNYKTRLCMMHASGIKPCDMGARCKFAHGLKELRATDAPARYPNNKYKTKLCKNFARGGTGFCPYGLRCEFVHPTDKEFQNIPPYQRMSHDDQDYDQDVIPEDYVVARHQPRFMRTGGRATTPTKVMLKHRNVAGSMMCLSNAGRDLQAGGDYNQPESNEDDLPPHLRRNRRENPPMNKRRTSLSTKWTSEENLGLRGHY

[18] = molecular target: T6, RNA-binding protein pos-1 (Caenorhabditis elegans, UniProt G5EF15); experiment: inhibitors of POS-1/mex-3 RNA binding, dose response, biochemical, fluorescence polarization (AID 1964);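 note: purified POS-1 fused to maltose binding protein made in E. coli; potency of compounds blocking POS-1 binding to fluorescent RNA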
T6 sequence (G5EF15 whole entry): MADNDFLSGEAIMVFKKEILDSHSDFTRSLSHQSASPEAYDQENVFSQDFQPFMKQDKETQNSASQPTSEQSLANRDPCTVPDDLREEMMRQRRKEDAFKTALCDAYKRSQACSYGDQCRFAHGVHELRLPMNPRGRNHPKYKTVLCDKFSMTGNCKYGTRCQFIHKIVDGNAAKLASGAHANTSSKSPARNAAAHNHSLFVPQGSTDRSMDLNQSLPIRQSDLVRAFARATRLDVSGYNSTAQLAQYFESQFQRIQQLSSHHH

Compound: C[C@H](CO)N1C[C@H](C)[C@H](CN(C)C(=O)Nc2ccc(F)cc2)Oc2c(NC(=O)c3ccncc3)cccc2C1=O
- AC50 [1]: 2.08 µM (active)

Compound: C[C@@H]1CN([C@H](C)CO)C(=O)Cc2cc(NS(=O)(=O)c3ccc(F)cc3)ccc2O[C@@H]1CN(C)Cc1ccc(-c2ccccc2)cc1
- AC50 [1]: 3.2 µM (active)

Compound: Cc1ccc(S(=O)(=O)Nc2ccc3c(c2)C(=O)N([C@H](C)CO)C[C@H](C)[C@@H](CN(C)C(=O)Nc2ccc(C(F)(F)F)cc2)OCCCC[C@@H](C)O3)cc1
- AC50 [1]: 4.82 µM (active)

Compound: O=C(OCC(=O)N1c2ccccc2Sc2ccccc21)c1ccc[n+]([O-])c1
- IC50 [2]: 1.66 µM (not active)

Compound: O=C(Cc1ccc(S(=O)(=O)N2CCOCC2)s1)N1CCN(S(=O)(=O)c2ccc(Cl)cc2)CC1
- AC50 [3]: 7.03 µM (active)
- AC50 [4]: 28.2 µM (active)
- AC50 [5]: 14.1 µM (active)
- AC50 [6]: 7.93 µM (active)

Compound: CC(C)/N=C(\S)NN=C1CCCCCCCCCCC1
- IC50 [2]: 1.04 µM (not active)

Compound: CC1CCN(C(=O)c2ncn3c2C(=O)N[C@@H](C)C3)CC1
- AC50 [3]: 1.94 µM (active)
- AC50 [4]: 9.91 µM (active)
- AC50 [5]: 7.15 µM (active)
- AC50 [6]: 9.53 µM (active)

Compound: COc1ccccc1NS(=O)(=O)c1cccc(C(=O)N/N=C/c2c(CO)cnc(C)c2O)c1
- IC50 [7]: > 20 µM (inactive)
- IC50 (H9c2): > 79 µM (inactive)

Compound: COc1cc2c3cc1Oc1c(OC)c(OC)cc4c1[C@H](Cc1ccc(cc1)Oc1cc(ccc1O)C[C@H]3N(C)CC2)N(C)CC4 [AROMOLINE]
- AC50 [8]: 9.29 µM (active)

Compound: C[C@@H]1CN([C@@H](C)CO)C(=O)c2cccc(NS(=O)(=O)c3ccc(Cl)cc3)c2O[C@H]1CN(C)Cc1ccc(C(=O)Nc2ccccc2N)cc1
- AC50 [1]: 2.53 µM (active)

Compound: O=C(Nc1ccccc1)N1CCCCN2[C@H](CO)[C@H](c3ccc(C#Cc4cccnc4)cc3)[C@@H]2C1
- AC50 [9]: 0.15 µM (active)
- AC50 [10]: 0.676 µM (active)
- AC50 [11]: 0.165 µM (active)
- AC50 [12]: 0.157 µM (active)

Compound: Cc1ccc(S(=O)(=O)N(C)C[C@H]2Oc3c(NC(=O)c4nc5ccccc5s4)cccc3C(=O)N([C@@H](C)CO)C[C@@H]2C)cc1
- AC50 [1]: 1.09 µM (active)

Compound: Cc1cccc(Oc2ccc(Cl)cc2N)c1
- IC50 [2]: > 50 µM (not active)

Compound: CCN(CC)CCN(C(=O)c1ccc(N2C(=O)CCC2=O)cc1)c1nc2cc3c(cc2s1)OCCO3
- AC50 [8]: 21.9 µM (active)

Compound: C[C@H](CO)N1C[C@H](C)[C@@H](CN(C)C(=O)Nc2cccc3ccccc23)Oc2ccc(NC(=O)Cc3cn(C)c4ccccc34)cc2C1=O
- AC50 [9]: 2.16 µM (active)
- AC50 [10]: 2.34 µM (active)
- AC50 [11]: 1.38 µM (active)
- AC50 [12]: 1.56 µM (active)

Compound: C[C@@H]1CN([C@@H](C)CO)C(=O)c2cccc(NC(=O)Nc3ccc(F)cc3)c2O[C@@H]1CN(C)Cc1ccc(C(=O)Nc2ccccc2N)cc1
- AC50 [1]: 3.68 µM (active)

Compound: C[C@@H]1CN([C@@H](C)CO)C(=O)c2cccc(NC(=O)Nc3ccccc3)c2O[C@@H]1CN(C)C(=O)Nc1ccc(F)cc1
- AC50 [9]: 0.65 µM (active)
- AC50 [10]: 0.392 µM (active)
- AC50 [11]: 0.35 µM (active)
- AC50 [12]: 0.372 µM (active)

Compound: O=C(N/N=C/c1ccccn1)c1cccs1
- IC50 [13]: > 47.1 µM (inactive)
- EC50 [14]: > 53 µM (inactive)
- IC50 (H9c2): > 79 µM (inactive)

Compound: O=[N+]([O-])c1cc(Br)c(O)c(/C=N/Nc2nc3ccccc3s2)c1
- IC50 [15]: > 54 µM (active)
- EC50 (Streptococcus): 1.69 µM (active)
- EC50 [16]: 1.59 µM (active)

Compound: C[C@@H]1CN([C@H](C)CO)S(=O)(=O)c2ccc(C#Cc3ccccc3F)cc2O[C@H]1CN(C)C(=O)c1ccc2c(c1)OCO2
- IC50 (H9c2): > 79 µM (inactive)
- AC50 [9]: 1.61 µM (active)
- AC50 [10]: 1.6 µM (active)
- AC50 [11]: 1.18 µM (active)
- AC50 [12]: 0.925 µM (active)

Compound: O=C1c2cccc3cccc(c23)C(=O)N1CCN1CCN(C(=S)Nc2ccc(Cl)cc2)CC1
- IC50 [2]: 22.7 µM (not active)

Compound: OCC[C@@H]1C[C@@H](O)[C@H](O)[C@]2(OCc3ccccc32)O1
- AC50 [4]: 27.2 µM (active)
- AC50 [5]: 28.2 µM (active)

Compound: CCn1c(C)nc2cc(N)ccc21
- AC50 [8]: 5.49 µM (active)
- EC50 [17]: 4.59 µM (active)
- EC50 [18]: 261 µM (active)

Compound: CCN(CC)CCN(C(=O)c1ccc2c(c1)CCCC2)c1nc2c(OC)cccc2s1
- AC50 [8]: 24.3 µM (active)
